Our source for the TGI and GI50 values is PubChem BioAssay (NCI).

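Protocol summary: plate cells (96-well), add compound at 5 concentrations, incubate 48 h, interpolate endpoints linearly. Here, GI50 denotes the concentration required for 50% inhibition of growth. The concentration for full growth arrest is given as TGI.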

Test in all cases: growth of human tumour cells (NCI), 48 h
For assay [1], the system named is SK-OV-3 ovarian.
For assay [2], the system named is HT29 colon.
Assay [3] deals with UACC-62 melanoma.
The subject of assay [4] is RXF 393 renal.
Assay [5] deals with HCT-15 colon.
Assay [6] has as its system RPMI-8226 leukemia.
Assay [7] relates to OVCAR-3 ovarian.
The subject of assay [8] is NCI-H23 lung.
Assay [9] relates to SK-MEL-2 melanoma.
The subject of assay [10] is DU-145 prostate.

As for `CCCCCCCC(=O)NCC(O)CNC(=O)CCCCCCC`, the TGI in assay [1], in assay [2], in assay [3], in assay [4], in assay [5] and in assay [6] was more than 100 µM each time. Moreover, the TGI in [7] and in assay [8] was more than 100 µM throughout.

For `CCOC(=O)c1c(-c2ccccc2)oc(-c2ccccc2)c1C(=O)OCC`, the TGI in [1], in assay [9], in assay [2], in [3], in assay [4] and in assay [6] was more than 100 µM each time. The TGI in assay [7] and in assay [8] was more than 100 µM throughout.

Take `Cc1oc2c(C)c3oc(=O)cc(C)c3cc2c1CNC(=O)[C@@H]1OCCOCCOCCOCCOCCOC1C(=O)O` (stereo partly specified): the TGI in assay [1], in assay [2], in [3], in assay [4], in assay [5] and in assay [6] was more than 100 µM in each case. Further, the TGI in assay [7] and in [8] was more than 100 µM throughout.

In the case of `CC1(Cl)CC2OC3(Br)C=CC(C)(O)C2(CC1Br)C3(C)C` (stereo unspecified), the TGI in assay [1], in assay [9], in assay [2], in [3], in [4] and in assay [5] was more than 100 µM in each case. For the same compound, the TGI in [6], in assay [7] and in assay [8] was more than 100 µM each time.

With `COc1ccc(-n2cc(-c3cc(OC)c(OC)c(OC)c3)nc2SCc2ccccc2)cc1`, the GI50 was more than 100 µM in [1]; more than 100 µM in assay [9]; 35.6 µM in assay [2]; 42.2 µM in assay [3]; more than 100 µM in [10]; more than 100 µM in [5]. For the same compound, the GI50 in assay [6] was 5.5 µM; in [7] it was 47.4 µM; in assay [8] it was more than 100 µM. Moreover, the TGI in assay [1], in assay [9], in assay [2], in assay [3], in assay [10] and in [5] was more than 100 µM in each case. For the same compound, the TGI in assay [6], in [7] and in assay [8] was more than 100 µM in each case.

`CC[O-].CC[O-].O=C([CH-]C(=O)c1cccnc1)c1ccccc1.O=C([CH-]C(=O)c1cccnc1)c1ccccc1.[Ti+4]`: the GI50 is 91.8 µM in assay [1]; more than 100 µM in [9]; 57.1 µM in assay [2]; more than 100 µM in assay [3]; 19.7 µM in assay [4]; 18.3 µM in assay [5]. Moreover, the GI50 in assay [6] was 55.8 µM; in [7] it was more than 100 µM. The TGI in [1] was more than 100 µM; in assay [9] it was more than 100 µM; in assay [2], more than 100 µM; in assay [3], more than 100 µM; in [4] it was 70.4 µM; in assay [5], more than 100 µM. Further, the TGI in assay [6] and in assay [7] was more than 100 µM in each case.

`O=S(=O)(N/N=C/c1ccc(Cl)c(Cl)c1)c1ccccc1`: the TGI was more than 100 µM in [1]; more than 100 µM in assay [9]; more than 100 µM in assay [2]; more than 100 µM in [3]; 63.2 µM in assay [4]; more than 100 µM in assay [5]. Besides, the TGI in assay [6], in assay [7] and in assay [8] was more than 100 µM each time.

On to `CS(=O)(=O)OCC1OC(n2ccc(NC(=O)c3ccccc3)nc2=O)CC1OS(C)(=O)=O` (stereo unspecified), for which the TGI in assay [1], in assay [9], in [2], in [3], in [10] and in assay [5] was more than 100 µM in each case. Moreover, the TGI in assay [6], in assay [7] and in assay [8] was more than 100 µM throughout.

As to `COc1cc2c3c(n(CCCN(CCN)CCCn4c5c(c6cc(OC)c(OC)cc6c4=O)C(=O)c4cc6c(cc4-5)OCO6)c(=O)c2cc1OC)-c1cc2c(cc1C3=O)OCO2`, the GI50 is 1.41 µM in [1]; 21.1 µM in assay [9]; 2.52 µM in assay [2]; 0.24 µM in assay [3]; 3.39 µM in [4]; 0.663 µM in assay [10]. For the same compound, the GI50 in assay [5] is 8.43 µM; in assay [7] it was 4.34 µM; in assay [8], 0.984 µM. The TGI in assay [1] was more than 91.6 µM; in assay [9], more than 100 µM; in [2] it was more than 37 µM; in assay [3], 0.858 µM; in [4] it was 12.7 µM; in assay [10], more than 100 µM. Moreover, the TGI in assay [5] is more than 100 µM; in assay [7] it was 20.7 µM; in assay [8], 5.24 µM.

Take `C/C=C/C1=C(Cl)C(=O)[C@@H](Cl)[C@@]1(O)C(=O)OC`: the TGI in [1] is 30.6 µM; in assay [9] it was 7.56 µM; in assay [2], 15.4 µM; in assay [3], 4.18 µM; in [4], 4.76 µM; in assay [5], 4.43 µM. Further, the TGI was found to be 29 µM in assay [6], 6.94 µM in [7] and 10.1 µM in assay [8].

With `Nc1ncnc2c1ncn2Cc1ccc(C23CC4CC(CC(C4)C2)C3)c(OCc2cc(F)c(F)cc2F)c1`, the GI50 was 87.7 µM in [1]; more than 100 µM in assay [9]; 12 µM in assay [2]; 4.75 µM in assay [3]; 2.02 µM in assay [4]; 15.3 µM in [10]. For the same compound, the values for the GI50 in assay [5] and in [7] were 4.92 µM and 3.27 µM, respectively. Also, the TGI in assay [1] is more than 100 µM; in assay [9], more than 100 µM; in assay [2] it was more than 100 µM; in assay [3] it was more than 100 µM; in assay [4] it was 8.36 µM; in assay [10], more than 100 µM. In addition, the TGI in assay [5] and in assay [7] was more than 100 µM in each case.

`CN(C)CCN(C)CC1COC(C)(C)O1` (stereo unspecified): the TGI in [1], in assay [9], in assay [2], in assay [3], in [4] and in assay [6] was more than 100 µM throughout. The TGI in assay [7] and in [8] was more than 100 µM throughout.
